Results taken from US20260125382A1, “COMPOUNDS FOR INHIBITING OR DEGRADING CDK2 AND/OR CDK9 AND MEDICINAL USE THEREOF” (KOREA RESEARCH INSTITUTE OF CHEMICAL TECHNOLOGY, priority 2022, published 2026).

Assays:
CDK2 = target: T1, CDK2 (Homo sapiens, UniProt P24941); assay: CDK protein degradation activity (Western blotting), CDK2; format: cell-based; conditions: MDA-MB-231 cells, 16 hours, Western blot
T1 construct: endogenous in cells; host or cells: MDA-MB-231
Method in brief: (§1)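 Seed MDA-MB-231 cells; next day add compound to 100 nM, 1 μM or 10 μM final, or DMSO. After 16 h, harvest and lyse in Triton X-100 buffer, run SDS-PAGE, probe for CDK2, CDK9 and tubulin.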

CDK9 = target: T2, CDK9 (Homo sapiens, UniProt P50750); assay: CDK protein degradation activity (Western blotting), CDK9; format: cell-based; conditions: MDA-MB-231 cells, 16 hours, Western blot
T2 construct: endogenous in cells; host or cells: MDA-MB-231
Method in brief: as §1

T2 sequence (P50750 whole entry): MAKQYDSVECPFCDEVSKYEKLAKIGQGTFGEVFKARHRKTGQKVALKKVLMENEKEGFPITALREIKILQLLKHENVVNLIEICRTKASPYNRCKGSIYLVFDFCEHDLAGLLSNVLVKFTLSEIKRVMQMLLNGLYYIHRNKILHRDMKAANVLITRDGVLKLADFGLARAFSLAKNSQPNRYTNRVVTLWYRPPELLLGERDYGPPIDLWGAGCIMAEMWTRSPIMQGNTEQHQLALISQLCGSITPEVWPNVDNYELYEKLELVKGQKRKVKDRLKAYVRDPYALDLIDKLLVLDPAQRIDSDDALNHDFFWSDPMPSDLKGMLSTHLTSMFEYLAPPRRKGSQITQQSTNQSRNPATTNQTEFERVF

SMILES | Enzyme degradation CDK2 (% remaining) @ 0.1 μM (CDK2) | Enzyme degradation CDK2 (% remaining) @ 1 μM (CDK2) | Enzyme degradation CDK2 (% remaining) @ 10 μM (CDK2) | Enzyme degradation CDK9 (% remaining) @ 0.1 μM (CDK9) | Enzyme degradation CDK9 (% remaining) @ 1 μM (CDK9) | Enzyme degradation CDK9 (% remaining) @ 10 μM (CDK9)
Cc1cccc(C(=O)N[C@H]2C[C@@H](n3cnc4c(Nc5ccc(N6CCN(CC7CCN(c8ccc9c(c8)C(=O)N([C@H]8CCC(=O)NC8=O)C9=O)CC7)CC6)cc5)ncnc43)C2)n1 [Compound 88, N-((1s,3s)-3-(6-((4-(4-((1-(2-(2,6-dioxopiperidin-3-yl)-1,3-dioxoisoindolin-5-yl)piperidin-4-yl)methyl)piperazin-1-yl)phenyl)amino)-9H-purin-9-yl)cyclobutyl)-6-methylpicolinamide] | 20/20/20% | 20/20/20% | 20/20/20% | 0/0/0% | 0/0/0% | 0/0/0%
O=C1CC[C@@H](c2cccc(OCC(=O)N3CCC(CN4CCN(c5ccc(Nc6ncnc7c6ncn7C6CC(NC(=O)Cc7ccccc7)C6)cc5)CC4)CC3)c2)C(=O)N1 (some centres unmarked) [Compound 225, N-((1s,3s)-3-(6-((4-(4-((1-(2-(3-(2,6-dioxopiperidin-3-yl)phenoxy)acetyl)piperidin-4-yl)methyl)piperazin-1-yl)phenyl)amino)-9H-purin-9-yl)cyclobutyl)-2-phenylacetamide] | 10% | 20% | 40% | 30% | 0% | 0%
O=C1CCC(N2C(=O)c3ccc(N4CCC(C(=O)N5CCC(CN6CCC(CCNc7ncnc8c7ncn8[C@H]7C[C@@H](NC(=O)c8c(Cl)cccc8Cl)C7)CC6)CC5)CC4)cc3C2=O)C(=O)N1 (some centres unmarked) [Compound 400, 2,6-dichloro-N-((1s,3s)-3-(6-((2-(1-((1-(1-(2-(2,6-dioxopiperidin-3-yl)-1,3-dioxoisoindolin-5-yl)piperidin-4-carbonyl)piperidin-4-yl)methyl)piperidin-4-yl)ethyl)amino)-9H-purin-9-yl)cyclobutyl)benzamide] | 30% | 30% | 40% | 0/0/0% | 0/0/0% | 0/0/0%
Cc1cccc(C(=O)N[C@H]2C[C@@H](n3cnc4c(NC5CCN(CCC6CCN(c7cccc8c7C(=O)N([C@H]7CCC(=O)CC7=O)C8=O)CC6)CC5)ncnc43)C2)n1 [Compound 36, N-((1s,3s)-3-(6-((1-(2-(1-(2-(2,4-dioxocyclohexyl)-1,3-dioxoisoindolin-4-yl)piperidin-4-yl)ethyl)piperidin-4-yl)amino)-9H-purin-9-yl)cyclobutyl)-6-methylpicolinamide] | 100/100/100% | 100/100/100% | 100/100/100% | 30% | 10% | 20%
COc1ccc(C(=O)N2CCC3(CC2)CC(N2CCC(c4ccc(Nc5ncnc6c5ncn6[C@H]5C[C@@H](NC(=O)Cc6ccccc6)C5)cc4)CC2)C3)cc1N1CCC(=O)NC1=O [Compound 286, N-((1s,3s)-3-(6-((4-(1-(7-(3-(2,4-dioxotetrahydropyrimidin-1(2H)-yl)-4-methoxybenzoyl)-7-azaspiro[3.5]nonan-2-yl)piperidin-4-yl)phenyl)amino)-9H-purin-9-yl)cyclobutyl)-2-phenylacetamide] | 40% | 60% | 70% | 40% | 30% | 30%
Cc1cccc(C(=O)NC2CC(n3cnc4c(NC5CCN(C(=O)CC6CCN(C(=O)CNc7cccc8c7C(=O)N([C@H]7CCC(=O)NC7=O)C8=O)CC6)CC5)ncnc43)C2)n1 (some centres unmarked) [Compound 52, N-((1s,3s)-3-(6-((1-(2-(1-((2-(2,6-dioxopiperidin-3-yl)-1,3-dioxoisoindolin-4-yl)glycyl)piperidin-4-yl)acetyl)piperidin-4-yl)amino)-9H-purin-9-yl)cyclobutyl)-6-methylpicolinamide] | 40% | 40% | 50% | 70% | 30% | 10%
O=C1CC[C@H](N2C(=O)c3ccc(N4CCC(C(=O)N5CCC(N6CCN(c7ccc(Nc8ncnc9c8ncn9[C@H]8C[C@@H](NC(=O)Cc9ccccc9)C8)cc7)CC6)CC5)CC4)cc3C2=O)C(=O)N1 [Compound 343, N-((1s,3s)-3-(6-((4-(4-(1-(1-(2-(2,6-dioxopiperidin-3-yl)-1,3-dioxoisoindolin-5-yl)piperidin-4-carbonyl)piperidin-4-yl)piperazin-1-yl)phenyl)amino)-9H-purin-9-yl)cyclobutyl)-2-phenylacetamide] | 30% | 30% | 40% | 10% | 0% | 0%
O=C1CC[C@@H](c2ccc(OCC(=O)N3CCC(CN4CCN(c5ccc(Nc6ncnc7c6ncn7[C@H]6C[C@@H](NC(=O)c7c(Cl)cccc7Cl)C6)cc5)CC4)CC3)cc2)C(=O)N1 [Compound 437, 2,6-dichloro-N-((1s,3s)-3-(6-((4-(4-((1-(2-(4-(2,6-dioxopiperidin-3-yl)phenoxy)acetyl)piperidin-4-yl)methyl)piperazin-1-yl)phenyl)amino)-9H-purin-9-yl)cyclobutyl)benzamide] | 30% | 40% | 40% | 10/10/10% | 10/10/10% | 10/10/10%
Cc1cccc(C(=O)NC2CC(n3cnc4c(NCCC5CCN(CC6CCN(C(=O)C7CCN(c8ccc9c(c8)C(=O)N([C@H]8CCC(=O)NC8=O)C9=O)CC7)CC6)CC5)ncnc43)C2)n1 (some centres unmarked) [Compound 355, N-((1s,3s)-3-(6-((2-(1-((1-(1-(2-(2,6-dioxopiperidin-3-yl)-1,3-dioxoisoindolin-5-yl)piperidin-4-carbonyl)piperidin-4-yl)methyl)piperidin-4-yl)ethyl)amino)-9H-purin-9-yl)cyclobutyl)-6-methylpicolinamide] | 70% | 60% | 60% | 10% | 0% | 0%
Cc1cccc(C(=O)N[C@H]2C[C@@H](n3cnc4c(NCc5cccc(N6CCN(CC7CCN(c8ccc9c(c8)C(=O)N([C@H]8CCC(=O)NC8=O)C9=O)CC7)CC6)c5)ncnc43)C2)n1 [Compound 137, N-((1s,3s)-3-(6-((3-(4-((1-(2-(2,6-dioxopiperidin-3-yl)-1,3-dioxoisoindolin-5-yl)piperidin-4-yl)methyl)piperazin-1-yl)benzyl)amino)-9H-purin-9-yl)cyclobutyl)-6-methylpicolinamide] | 30% | 40% | 40% | 0/0/0% | 0/0/0% | 0/0/0%
O=C1CC[C@H](N2C(=O)c3ccc(NCC(=O)N4CCC(CN5CCN(c6ccc(Nc7ncnc8c7ncn8C7CC(NC(=O)c8c(Cl)cccc8Cl)C7)cc6)CC5)CC4)cc3C2=O)C(=O)N1 (some centres unmarked) [Compound 164, 2,6-dichloro-N-((1s,3s)-3-(6-((4-(4-((1-((2-(2,6-dioxopiperidin-3-yl)-1,3-dioxoisoindolin-5-yl)glycyl)piperidin-4-yl)methyl)piperazin-1-yl)phenyl)amino)-9H-purin-9-yl)cyclobutyl)benzamide] | 30/30/30% | 30/30/30% | 30/30/30% | 0/0/0% | 0/0/0% | 0/0/0%
Cc1cccc(C(=O)N[C@H]2C[C@@H](n3cnc4c(Nc5ccc(N6CCN(CC7CCN(C(=O)C8CCN(c9cc%10c(cc9F)C(=O)N([C@H]9CCC(=O)NC9=O)C%10=O)CC8)CC7)CC6)cc5)ncnc43)C2)n1 [Compound 476, N-((1s,3s)-3-(6-((4-(4-((1-(1-(2-(2,6-dioxopiperidin-3-yl)-6-fluoro-1,3-dioxoisoindolin-5-yl)piperidin-4-carbonyl)piperidin-4-yl)methyl)piperazin-1-yl)phenyl)amino)-9H-purin-9-yl)cyclobutyl)-6-methylpicolinamide] | 70% |  | 60% | 50% | 10% | 10%
O=C1CC[C@H](N2C(=O)c3cc(F)c(N4CCN(CC5CCN(c6ccc(Nc7ncnc8c7ncn8C7CC(NC(=O)c8c(Cl)cccc8Cl)C7)cc6)CC5)CC4)cc3C2=O)C(=O)N1 (some centres unmarked) [Compound 301, 2,6-dichloro-N-((1s,3s)-3-(6-((4-(4-((4-(2-(2,6-dioxopiperidin-3-yl)-6-fluoro-1,3-dioxoisoindolin-5-yl)piperazin-1-yl)methyl)piperidin-1-yl)phenyl)amino)-9H-purin-9-yl)cyclobutyl)benzamide] | 30% | 20% | 10% | 70% | 0% | 0%
